In patent US20260258017A1, “CO-CRYSTAL FORMS OF SELINEXOR” (Karyopharm Therapeutics Inc., priority 2019, published 2026) one finds DVS water adsorption and solubility data, which are given here for one molecule.

A short description of series [1]: DVS moisture sorption isotherm. It counts as physicochemical. The following applies: 25° C., 0-90% RH, 10% RH intervals. As for the experimental part: Sorption isotherms are obtained using a TA Instruments Q5000 SA DVS. The sample temperature is maintained at 25° C. by the instrument controls. The humidity is controlled by mixing streams of dry and wet nitrogen, with a total flow rate of 200 ml/min. The relative humidity is measured by a calibrated probe (dynamic range of […]), located near the sample. The weight change, (mass relaxation) of the sample as a function of % RH is constantly monitored by a microbalance (accuracy 0.0001 mg). Typically, 3-10 mg of sample is placed in a tared mesh stainless steel basket under ambient conditions. The sample is loaded and unloaded at 50% RH and 25° C. (typical room conditions). A moisture sorption isotherm is performed as outlined below (2 scans per complete cycle). The standard isotherm is performed at 25° C. at 10% RH intervals over a 0-90% RH range. Typically, a triple cycle is carried out. Data analysis is carried out using TA Instruments Universal Analysis 2000. [table]

For series [2] the following is noted: comparison statement for selinexor itself; no medium given; cited from earlier work.

In the case of `O=C(/C=C\n1cnc(-c2cc(C(F)(F)F)cc(C(F)(F)F)c2)n1)NNc1cnccn1` [selinexor, (Z)-3-(3-(3,5-bis(trifluoromethyl)phenyl)-IH-I,2,4-triazol-1-yl)-N′-(pyrazin-2yl)acrylohydrazide], the DVS water adsorption entry in series [1] is “does not adsorb water”. In addition, the solubility entry in series [2] was “low solubility”.
